Reference: PubChem BioAssay (NCI)
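GI50 = concentration required for 50% inhibition of growth. TGI: total growth inhibition.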

Columns and labels:
Test in all cases: growth of human tumour cells (NCI), 384-well format
A498 renal = tested on: A498 renal
A549 NSCLC = tested on: A549 NSCLC
BT-549 breast = tested on: BT-549 breast
CCRF-CEM leukemia = tested on: CCRF-CEM leukemia
COLO 205 colon = tested on: COLO 205 colon
HL-60(TB) leukemia = tested on: HL-60(TB) leukemia
HOP-62 NSCLC = tested on: HOP-62 NSCLC
NCI-H23 lung = tested on: NCI-H23 lung
NCI-H322M lung = tested on: NCI-H322M lung
NCI-H460 NSCLC = tested on: NCI-H460 NSCLC
OVCAR-4 ovarian = tested on: OVCAR-4 ovarian
SK-MEL-28 melanoma = tested on: SK-MEL-28 melanoma
UACC-257 melanoma = tested on: UACC-257 melanoma

O=S(=O)(c1ccc2c(c1)C(=NO)c1cc(S(=O)(=O)N3CCCCC3)ccc1-2)N1CCCCC1
GI50 (A498 renal): 1490 nM | TGI (A498 renal): 3100 nM | GI50 (A549 NSCLC): 171 nM | TGI (A549 NSCLC): 315 nM | GI50 (BT-549 breast): 179 nM | TGI (BT-549 breast): 319 nM | GI50 (CCRF-CEM leukemia): 82.5 nM | TGI (CCRF-CEM leukemia): 205 nM | GI50 (COLO 205 colon): 184 nM | TGI (COLO 205 colon): 325 nM | GI50 (HL-60(TB) leukemia): 16.9 nM | TGI (HL-60(TB) leukemia): 30.9 nM | GI50 (HOP-62 NSCLC): 97.6 nM | TGI (HOP-62 NSCLC): 216 nM | GI50 (NCI-H23 lung): 92.7 nM | TGI (NCI-H23 lung): 228 nM | GI50 (NCI-H322M lung): 178 nM | TGI (NCI-H322M lung): 320 nM | GI50 (NCI-H460 NSCLC): 170 nM | TGI (NCI-H460 NSCLC): 314 nM | GI50 (OVCAR-4 ovarian): 17.9 nM | TGI (OVCAR-4 ovarian): 34.4 nM | GI50 (SK-MEL-28 melanoma): 171 nM | TGI (SK-MEL-28 melanoma): 309 nM | GI50 (UACC-257 melanoma): 180 nM | TGI (UACC-257 melanoma): 320 nM
